Like-named read-outs stand apart in the source and are kept apart here.
Columns and labels:
[1] = Systemic pharmacokinetics after intracameral Bimatoprost SR Gen 1 (study TX09051); assay type: in vivo; details: monkey; intracameral 30 μg (Gen 1)
[2] = Systemic pharmacokinetics after topical bimatoprost (study 6177-110); assay type: in vivo; details: monkey, blood, LLOQ 0.100 ng/mL (AGN-191522)
[3] = Systemic pharmacokinetics after topical bimatoprost (study PK-98-119); assay type: in vivo; details: human; topical bimatoprost 0.03% QD
[4] = Aqueous humor pharmacokinetics after topical bimatoprost (study PK10130); assay type: in vivo; details: dog; topical bimatoprost 0.03% QD; LLOQ 0.200 ng/mL (AGN-192024)
[5] = human; topical bimatoprost 0.03% QD; cited from earlier work
[6] = Ocular pharmacokinetics after topical bimatoprost (study PK-97-032); assay type: in vivo; details: monkey; topical bimatoprost 0.1% BID
[7] = Ocular pharmacokinetics after topical bimatoprost (study PK-98-003); assay type: in vivo; details: monkey; topical bimatoprost 0.1% QD
glaucoma patients = test: Phase 1/2 prospective 24-month paired-eye clinical trial of BimSR (Example 1); assay type: in vivo, human; details: month 24, topical bimatoprost solution 0.03% once a day
Protocol: A phase 1/2, prospective, 24-month, paired-eye clinical trial was conducted in 75 glaucoma patients with study eye baseline mean TOP of 25.2 (range 22-36) mmHg after washout. An intraocular implant having the composition as described in US Patent Publication No. 2015-0118279 as formulation 2, as described in TABLE 1 of the specification (6, 10, 15, or 20 μg dose strength) was administered intracamerally in the study eye; the fellow eye was treated with topical bimatoprost solution 0.03% once a day. Long-term TOP-lowering effect was assessed by TOP, time to additional TOP-lowering treatment, and percentage of patients without additional TOP-lowering treatment. Patients were permitted rescue topical medication or a single repeat treatment with BimSR. Results are presented for the 10 and 15 μg dose strengths of BimSR (n=21 for each) that are continuing in development.
Up to 4 and 6 months, 95.2% and 66.7% of patients, respectively, were controlled on the initial BimSR 10 or 15 μg treatment without need for rescue medication or implant retreatment. The median time to additional TOP-lowering treatment after BimSR administration was 38-39 weeks.
A single administration of BimSR 10 or 15 μg controlled TOP up to 6 months in 66.7% of patients and 23.8% of patients at 24 months.

[8] = Systemic pharmacokinetics after intracameral Bimatoprost SR (study TX12102); assay type: in vivo; details: dogs; intracameral Bimatoprost SR 10, 15 & 20 μg; blood; LLOQ 0.025 ng/mL (AGN-192024), 0.05 ng/mL (AGN-191522)
[9] = tested on: prostaglandin (PG) sensitive receptors; details: cited from earlier work

| SMILES | Systemic Concentration [1] | Systemic Concentration ([2]; topical bimatoprost 0.03% QD) | Systemic Concentration ([2]; topical bimatoprost 0.1% BID) | Systemic Concentration [3] | Aqueous Humor Concentration [4] | Aqueous Humor Concentration [5] | Aqueous Humor Concentration [6] | Tissues Concentration Cornea [6] | Tissues Concentration ICB [6] | Aqueous Humor Concentration [7] | Tissues Concentration Cornea [7] | Tissues Concentration ICB [7] | mean (SD) TOP (intraocular pressure) (glaucoma patients; fellow eyes of BimSR 10 μg group) | mean (SD) TOP (intraocular pressure) (glaucoma patients; fellow eyes of BimSR 15 μg group) | Systemic Concentration [8] | interaction with prostaglandin (PG) sensitive receptors [9] |
| --- | --- | --- | --- | --- | --- | --- | --- | --- | --- | --- | --- | --- | --- | --- | --- | --- |
| O=C(O)CCC/C=C\C[C@@H]1[C@@H](/C=C/[C@@H](O)CCc2ccccc2)[C@H](O)C[C@@H]1O [AGN-191522, bimatoprost acid] | 0.165 ng/mL | BLQ^e | BLQ^e | 2.41 ng/mL | 2.0 ng/mL | 8.55 ng/mL | – | – | – | – | – | – | – | – | – | – |
| CCNC(=O)CCC/C=C\C[C@@H]1[C@@H](/C=C/[C@@H](O)CCc2ccccc2)[C@H](O)C[C@@H]1O [AGN-192024, bimatoprost] | 0.280 ng/mL | 0.397 ng/mL | 1.92 ng/mL | 0.0822 ng/mL | BLQ^d | 2.37 ng/mL | 13.0 ng/mL | 2890 ng/g | 1369 ng/g | 34.5 ng/mL | 558 ng/g | 797 ng/g | 16.4 (2.1) mmHg | 15.4 (2.4) mmHg | BLQ^a | no meaningful interaction |

Reference: patent US20240225893A9, “SUSTAINED-RELEASE IMPLANTS FOR LOWERING INTRAOCULAR PRESSURE WITH EXTENDED DURATION OF EFFECT” (Allergan, Inc., priority 2017, published 2024)
